Assay results as given in ChEMBL document CHEMBL4706759, “Novel Substituted Pyrazines as Splicing Modulators for Modulating Splicing of mRNA and Uses Thereof for Treating Diseases” (ACS Med Chem Lett, 2021).

Tests used:
SMN2 pre-mRNA [1] = experiment: Modulation of SMN2 mRNA splicing in spinal muscular atrophy patient fibroblasts measured after 24 hrs by TaqMan qPCR analysis; type: tissue-based, Homo sapiens; details: fibroblast
SMN2 pre-mRNA [2] = experiment: Modulation of SMN2 mRNA splicing in spinal muscular atrophy patient fibroblasts assessed as change in SMN protein expression measured after 48 hrs by MSD analysis; parameters: species or system Homo sapiens; details: fibroblast

| Structure (SMILES) | EC50 (SMN2 pre-mRNA [1]) [nM] | EC50 (SMN2 pre-mRNA [2]) [nM] |
| --- | --- | --- |
| CN(c1cnc(-c2ccc(-c3cn[nH]c3)cc2O)cn1)[C@H]1C[C@@H]2CCC[C@@H](N2)[C@H]1F | 16 | 0.01 |
| CN(c1cnc(-c2cc(F)c(-c3cn[nH]c3)cc2O)cn1)[C@H]1C[C@@H]2CC[C@@H](N2)[C@H]1F | 16 | 0.01 |
| CN(c1cnc(-c2ccc(-c3ccn(C)c(=O)c3)cc2O)cn1)[C@@H]1C[C@H]2CCC[C@H](N2)[C@@H]1F | 51 | 0.01 |
| CN(c1cnc(-c2ccc(-c3cn[nH]c3)cc2O)cn1)[C@H]1C[C@]2(C)CCC[C@@](C)(N2)[C@H]1F | 16 | 0.01 |
| CN(c1cnc(-c2ccc(-c3cn[nH]c3)cc2O)cn1)[C@H]1C[C@@H]2CC[C@@](C)(N2)[C@H]1F | 16 | 0.01 |
| CN(c1cnc(-c2ccc(-c3cn[nH]c3)cc2O)cn1)[C@H]1C[C@@H]2CC[C@@H](N2)[C@H]1F | 16 | 0.01 |
